The supplement of paper PMC10307832

Tests used:
Test in all cases: relative viability (nuclei count vs DMSO), 5 days (fraction); higher = more cells survive
[1] = compound: C1CN(CCC1C(C2=CC3=C(C=C2)OCO3)(C4=CC5=C(C=C4)OCO5)O)C(=O)OC6=CC=C(C=C6)[N+](=O)[O-] [JZL-184] + Cc1cc(Nc2cc(N3CCN(C)CC3)nc(Sc3ccc(NC(=O)C4CC4)cc3)n2)n[nH]1 [Tozasertib] (partner 0.1 µM)
Procedure, shortened: (§1)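 Relative viability is defined as nuclei in treated wells over nuclei in vehicle wells. Duplicate plates were run and medians reported. Lung cancer cell lines in 1536-well plates were dosed by pin tool one day after seeding, with one drug or with a fixed anchor-drug dose plus five library-drug doses (not always all listed) in √10 steps, and nuclei were counted after 5 days.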

[2] = compound: C1CN(CCC1C(C2=CC3=C(C=C2)OCO3)(C4=CC5=C(C=C4)OCO5)O)C(=O)OC6=CC=C(C=C6)[N+](=O)[O-] [JZL-184] + O=C(c1cc(Cc2n[nH]c(=O)c3ccccc23)ccc1F)N1CCN(C(=O)C2CC2)CC1 [Olaparib] (partner 8 µM)
Procedure, shortened: as §1

[3] = compound: C1CN(CCC1C(C2=CC3=C(C=C2)OCO3)(C4=CC5=C(C=C4)OCO5)O)C(=O)OC6=CC=C(C=C6)[N+](=O)[O-] [JZL-184] + Cc1nc(Nc2ncc(C(=O)Nc3c(C)cccc3Cl)s2)cc(N2CCN(CCO)CC2)n1 [Dasatinib] (partner 0.075 µM)
Procedure, shortened: as §1

[4] = compound: C1CN(CCC1C(C2=CC3=C(C=C2)OCO3)(C4=CC5=C(C=C4)OCO5)O)C(=O)OC6=CC=C(C=C6)[N+](=O)[O-] [JZL-184] + O=C(CCCCCCC(=O)Nc1ccccc1)NO [Vorinostat] (partner 1 µM)
Procedure, shortened: as §1

[5] = compound: C1CN(CCC1C(C2=CC3=C(C=C2)OCO3)(C4=CC5=C(C=C4)OCO5)O)C(=O)OC6=CC=C(C=C6)[N+](=O)[O-] [JZL-184] + C[C@]1(O)C[C@@H](c2nc(-c3ccc4ccc(-c5ccccc5)nc4c3)c3c(N)nccn32)C1 [Linsitinib] (partner 1 µM)
Procedure, shortened: as §1

Cell Line | relative viability ([1]; first compound 0.04 µM) | relative viability ([1]; first compound 0.4 µM) | relative viability ([1]; first compound 1.265 µM) | relative viability ([1]; first compound 4 µM) | relative viability ([2]; first compound 0.04 µM) | relative viability ([2]; first compound 1.265 µM) | relative viability ([2]; first compound 4 µM) | relative viability ([3]; first compound 0.04 µM) | relative viability ([3]; first compound 0.4 µM) | relative viability ([3]; first compound 1.265 µM) | relative viability ([3]; first compound 4 µM) | relative viability ([4]; first compound 0.04 µM) | relative viability ([4]; first compound 1.265 µM) | relative viability ([4]; first compound 4 µM) | relative viability ([5]; first compound 0.04 µM) | relative viability ([5]; first compound 0.4 µM) | relative viability ([5]; first compound 1.265 µM) | relative viability ([5]; first compound 4 µM) | relative viability ([2]; first compound 0.4 µM) | relative viability ([4]; first compound 0.4 µM)
HCC-78 | 0.402 | 0.413 | 0.388 | 0.318 | 0.823 | 0.831 | 0.768 | 0.276 | 0.359 | 0.391 | 0.301 | 0.405 | 0.492 | 0.378 | 0.355 | 0.513 | 0.535 | 0.474 |  | 
HCC-366 | 0.133 | 0.508 | 0.109 | 0.0909 | 0.361 | 0.302 | 0.36 | 0.892 | 0.64 | 0.61 | 0.638 | 0.408 | 0.361 | 0.313 | 0.643 | 0.49 | 0.675 | 0.63 | 0.353 | 0.242
HCC-827 | 0.421 | 0.383 | 0.449 | 0.411 | 0.556 | 0.718 | 0.627 | 0.328 | 0.31 | 0.34 | 0.305 | 0.942 | 0.577 | 0.839 | 0.988 | 0.976 | 0.949 | 0.89 | 0.607 | 0.244
HOP-62 | 0.356 | 0.402 | 0.366 | 0.335 | 0.49 | 0.529 | 0.507 | 0.561 | 0.679 | 0.659 | 0.631 | 0.659 | 0.706 | 0.612 | 1.09 | 1.13 | 0.992 | 0.784 | 0.328 | 0.601
LC-2-ad | 0.451 | 0.429 | 0.511 | 0.385 | 0.79 | 0.696 | 0.686 | 0.815 | 0.496 | 0.815 | 0.463 | 0.774 | 0.676 | 0.669 | 0.857 | 0.698 | 0.839 | 0.829 | 0.682 | 0.67
LCLC-97TM1 | 0.41 | 0.177 | 0.242 | 0.242 | 0.437 | 0.371 | 0.385 | 0.903 | 0.778 | 0.911 | 0.763 | 1.03 | 0.619 | 0.749 | 0.183 |  | 0.208 | 0.198 | 0.374 | 0.644
LCLC-103H | 0.488 | 0.521 | 0.521 | 0.529 | 0.829 | 0.765 | 0.763 | 0.45 | 0.557 | 0.489 | 0.392 | 0.72 | 0.768 | 0.734 | 1.06 | 1.16 | 1 | 1.05 | 0.767 | 0.752
LK-2 | 0.166 | 0.163 | 0.171 | 0.181 | 0.777 | 0.939 | 0.835 | 0.379 | 0.364 | 0.295 | 0.325 | 0.275 | 0.251 | 0.295 | 0.733 | 0.559 | 0.662 | 0.583 | 0.661 | 0.309
LOU-NH91 | 0.806 | 0.727 | 0.798 | 0.629 | 1 | 0.957 | 0.889 | 0.612 | 0.544 | 0.605 | 0.567 | 1.02 | 1.03 | 0.893 | 1 | 0.924 | 1.02 | 0.968 | 0.902 | 0.893
LU99A | 0.283 | 0.299 | 0.317 | 0.285 | 0.256 | 0.254 | 0.225 | 0.717 | 0.443 | 0.525 | 0.541 | 0.567 | 0.66 | 0.548 | 0.582 | 0.511 | 0.529 | 0.442 | 0.277 | 0.377
LXF-289 | 0.221 | 0.206 | 0.198 | 0.22 | 1.16 | 1.01 | 0.975 | 0.173 | 0.281 | 0.207 | 0.307 | 0.771 | 0.755 | 0.669 | 1.05 | 0.94 | 0.971 | 0.924 | 1.06 | 0.734
NCI-H522 | 0.668 | 0.5 | 0.618 | 0.563 | 0.709 | 0.648 | 0.574 | 0.967 | 0.821 | 0.842 | 0.946 | 0.937 | 0.952 | 0.947 |  |  |  |  | 0.62 | 0.858
NCI-H1650 | 0.417 | 0.325 | 0.432 | 0.257 | 0.867 | 0.87 | 0.74 | 0.306 | 0.297 | 0.388 | 0.296 | 0.715 | 0.604 | 0.561 |  |  |  |  | 0.72 | 0.541
NCI-H1703 |  |  |  |  | 0.521 | 0.576 | 0.426 |  |  |  |  |  |  |  | 0.893 | 0.765 | 0.738 | 0.305 | 0.434 | 
NCI-H1792 |  |  |  |  | 0.349 | 0.465 | 0.432 | 0.854 | 0.771 | 0.912 | 0.718 |  |  |  | 0.573 | 0.462 | 0.653 | 0.51 | 0.304 | 
NCI-H2170 | 0.83 | 0.646 | 0.787 | 0.66 | 0.68 | 0.617 | 0.544 | 0.654 | 0.476 | 0.577 | 0.598 | 0.922 | 0.811 | 0.737 |  |  |  |  | 0.613 | 0.754
NCI-H2342 | 0.432 | 0.399 | 0.485 | 0.449 | 0.416 | 0.383 | 0.543 | 0.317 | 0.293 | 0.282 | 0.368 | 0.809 | 0.719 | 0.813 |  |  |  |  | 0.4 | 0.676
SW 900 | 0.497 | 0.459 | 0.605 | 0.482 | 0.966 | 0.844 | 0.898 | 0.543 | 0.619 | 0.661 | 0.509 | 0.496 | 0.587 | 0.527 |  |  |  |  | 0.858 | 0.4
